Data as given in ChEMBL document CHEMBL4725449, “Brain Penetrable Inhibitors of Ceramide Galactosyltransferase for the Treatment of Lysosomal Storage Disorders” (ACS Med Chem Lett, 2020).

How the values were obtained:
[1] = target: T1, 2-hydroxyacylsphingosine 1-beta-galactosyltransferase (Homo sapiens, UniProt Q16880); test: Inhibition of UGT8 in human OE19 cells assessed as redcution in SFT accumulation measured after 72 hrs by LC-MS/MS analysis; type: cell-based
T1 sequence (Q16880 whole entry): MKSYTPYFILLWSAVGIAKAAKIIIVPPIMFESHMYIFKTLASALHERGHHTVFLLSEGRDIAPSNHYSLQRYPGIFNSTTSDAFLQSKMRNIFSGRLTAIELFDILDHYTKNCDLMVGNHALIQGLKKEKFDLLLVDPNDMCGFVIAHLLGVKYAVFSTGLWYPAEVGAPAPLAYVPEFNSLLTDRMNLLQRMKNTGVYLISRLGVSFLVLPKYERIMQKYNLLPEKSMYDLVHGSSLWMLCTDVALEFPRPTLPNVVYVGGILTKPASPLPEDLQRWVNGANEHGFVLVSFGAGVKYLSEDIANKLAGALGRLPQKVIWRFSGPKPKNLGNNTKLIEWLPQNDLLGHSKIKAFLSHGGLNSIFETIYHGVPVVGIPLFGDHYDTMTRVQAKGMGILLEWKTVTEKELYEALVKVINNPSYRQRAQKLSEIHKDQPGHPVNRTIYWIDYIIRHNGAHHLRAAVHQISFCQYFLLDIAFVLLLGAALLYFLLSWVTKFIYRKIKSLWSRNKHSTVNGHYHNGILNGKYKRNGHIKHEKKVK

[2] = target: T2, UDP-glucuronosyltransferase 1A1 (Homo sapiens, UniProt P22309); test: Inhibition of UGT1A1 (unknown origin); type: ADME
T2 sequence (P22309 whole entry): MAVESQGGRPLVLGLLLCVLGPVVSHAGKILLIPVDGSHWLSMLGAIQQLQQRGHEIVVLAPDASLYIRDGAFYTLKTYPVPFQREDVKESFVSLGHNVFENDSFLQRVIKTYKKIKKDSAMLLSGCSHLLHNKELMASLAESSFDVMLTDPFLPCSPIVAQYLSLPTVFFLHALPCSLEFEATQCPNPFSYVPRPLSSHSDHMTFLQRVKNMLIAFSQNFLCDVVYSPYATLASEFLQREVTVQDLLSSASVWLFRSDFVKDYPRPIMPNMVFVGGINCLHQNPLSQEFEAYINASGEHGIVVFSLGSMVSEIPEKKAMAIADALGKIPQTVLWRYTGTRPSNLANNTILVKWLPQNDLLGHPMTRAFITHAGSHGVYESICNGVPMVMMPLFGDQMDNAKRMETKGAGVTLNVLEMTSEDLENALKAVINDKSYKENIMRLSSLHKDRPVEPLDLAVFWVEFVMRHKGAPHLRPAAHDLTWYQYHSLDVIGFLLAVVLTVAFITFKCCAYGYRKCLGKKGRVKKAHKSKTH

[3] = target: T3, UDP-glucuronosyltransferase 1A6 (Homo sapiens, UniProt P19224); test: Inhibition of UGT1A6 (unknown origin); type: ADME
T3 sequence (P19224 whole entry): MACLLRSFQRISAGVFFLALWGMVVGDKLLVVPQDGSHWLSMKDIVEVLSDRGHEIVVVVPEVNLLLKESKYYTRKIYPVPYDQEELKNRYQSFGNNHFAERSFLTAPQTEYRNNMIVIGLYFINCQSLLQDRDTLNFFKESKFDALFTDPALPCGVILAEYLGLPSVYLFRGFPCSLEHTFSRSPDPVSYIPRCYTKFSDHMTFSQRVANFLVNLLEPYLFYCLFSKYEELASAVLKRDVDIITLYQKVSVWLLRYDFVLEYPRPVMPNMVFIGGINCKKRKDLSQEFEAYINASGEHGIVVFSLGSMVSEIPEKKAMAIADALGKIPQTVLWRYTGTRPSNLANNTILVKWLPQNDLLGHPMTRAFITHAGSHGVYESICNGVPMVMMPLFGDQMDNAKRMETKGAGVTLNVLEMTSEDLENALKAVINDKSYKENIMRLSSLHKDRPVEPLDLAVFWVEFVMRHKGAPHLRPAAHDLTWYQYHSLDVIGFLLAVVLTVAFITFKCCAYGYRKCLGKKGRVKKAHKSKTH

[4] = target: T4, UDP-glucuronosyltransferase 2B15 (Homo sapiens, UniProt P54855); test: Inhibition of UGT2B15 (unknown origin); type: ADME
T4 sequence (P54855 whole entry): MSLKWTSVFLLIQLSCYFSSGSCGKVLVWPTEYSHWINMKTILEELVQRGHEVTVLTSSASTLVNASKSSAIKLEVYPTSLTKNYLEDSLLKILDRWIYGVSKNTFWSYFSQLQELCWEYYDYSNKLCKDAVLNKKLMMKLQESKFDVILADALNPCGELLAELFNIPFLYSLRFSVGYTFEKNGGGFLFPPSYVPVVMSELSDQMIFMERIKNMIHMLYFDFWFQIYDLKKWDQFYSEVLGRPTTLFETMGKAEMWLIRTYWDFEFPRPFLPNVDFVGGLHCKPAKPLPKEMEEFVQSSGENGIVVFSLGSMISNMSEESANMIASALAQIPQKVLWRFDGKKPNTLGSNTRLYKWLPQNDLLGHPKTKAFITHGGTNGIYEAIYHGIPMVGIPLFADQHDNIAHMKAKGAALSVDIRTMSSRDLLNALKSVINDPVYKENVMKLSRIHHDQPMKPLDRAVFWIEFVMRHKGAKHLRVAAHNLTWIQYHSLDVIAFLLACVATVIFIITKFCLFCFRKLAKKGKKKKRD

[5] = Intrinsic clearance in human liver microsomes; type: ADME, Microsome; settings: read-out: CLH
[6] = Drug uptake in C57BL/6 mouse brain at 3 mg/kg, iv measured at 1 hr; type: ADME, organism-based; settings: read-out: Drug uptake
[7] = Half life in Sprague-Dawley rat at 1 mg/kg, iv; type: ADME, organism-based; settings: in vivo
[8] = Cmax in Sprague-Dawley rat at 3 mg/kg, po; type: ADME, organism-based; set-up: route oral, dose 3 mg/kg; settings: in vivo
[9] = Tmax in C57BL/6 mouse at 3 mg/kg, po; type: ADME, organism-based; settings: in vivo
[10] = Oral bioavailability in C57BL/6 mouse at 3 mg/kg; type: ADME, organism-based; settings: in vivo
[11] = AUC (0 to last) in Beagle dog at 3 mg/kg, po; type: ADME, organism-based, Canis lupus familiaris; set-up: time 0 - last, route oral, dose 3 mg/kg; settings: in vivo
[12] = (§1) In vivo inhibition of GalCer de novo synthesis in adult C57BL/6 mouse kidney assessed as reduction in [13C] galactose incorporation into GalCer at 1 mg/kg, po via gavage treated with compound for 1 hr prior to intraperitoneal injection of [13C] galactose measured after 5 hrs of compound administration relative to control; type: functional
[13] = as §1, with “at 3” for “at 1”; type: functional
[14] = as §1, with “SFT” for “GalCer”; type: functional
[15] = (§2) In vivo inhibition of GalCer de novo synthesis in PN14 to PN21 days C57BL/6 mouse brain assessed as reduction in [13C] galactose incorporation into GalCer at 30 mg/kg, po bid for 2 days and single dose at day 3 treated 1 hr prior to intraperitoneal injection of [13C] galactose measured after 5 hrs of last dose relative to control; type: functional; settings: C57BL/6, 72 h, time 3 day
[16] = as §2, with “SFT” for “GalCer”, “10” for “30”; type: functional; settings: C57BL/6, 72 h, time 3 day

CNC(=O)c1csc2c(C(F)(F)F)cc(N3CCC(OC(=O)N[C@@H](C)COC(F)(F)F)CC3)nc12
IC50 [1]: 0.0002 µM | IC50 [2]: > 10 µM | IC50 [3]: > 10 µM | IC50 [4]: > 10 µM | microsomal CLint [5]: 73 µL/min/mg | concentration at 1 h [6]: 148 ng/mL | half-life [7]: 4.3 h | Cmax [8]: 405 ng/mL | Tmax [9]: 0.5 h | bioavailability [10]: 34% | AUC(0-t) [11]: 4190 ng·h/mL | inhibition in vivo at 1 mg/kg [12]: 43% | inhibition in vivo at 3 mg/kg [13]: 72% | inhibition in vivo at 1 mg/kg [14]: 50% | inhibition in vivo at 30 mg/kg [15]: 94% | inhibition in vivo at 10 mg/kg [16]: 97%
